From patent US20140127231A1, “p38 MAPK Pathway Inhibitors as Female-Specific Therapeutics” (UNIVERSITY OF VERMONT, priority 2012, published 2014) come the findings set out here.

“Also recorded” adds a separate entry of the source.

The test system of test [1] is TH1-mediated passive EAE. The test is described as follows: Passive EAE induced by TH1 cells. Format: in vivo, mice. Conditions: polarized DLN cells transferred into naïve recipients, listed as SB. An excerpt:
FIG. 5A is a schematic that illustrates that protocol of inducing passive EAE.
Based on this and the observation that IL-17 is not absolutely required for EAE progression (Haak, S et al., 2009, J Clin Invest 119:61-69), it is possible that SB prevents EAE by inhibiting production of additional key pathogenic factors. Further, it is shown that TH1-mediated passive EAE is prevented by inhibition of p38 MAPK (FIG. 5). In these experiments, donor animals were immunized with MOG35-55, DLN cells were isolated at D10 and cultured under polarizing conditions, and cells were transferred into naïve recipients. […] As such, complementary genomic and proteomic approaches were used to identify these factors, which in the future may provide novel druggable targets for treatment of autoimmune disease. Because such approaches typically yield a large number of potential candidates, a prioritizing/“funneling” scheme was constructed to rule out irrelevant hits in screens. In particular, the sexual dimorphism in response to SB serves as a useful discriminatory tool in this regard.

Test [2] deals with Naïve CD4+ T cells cultured under TH17 polarizing conditions. As to the kind of experiment: In vitro TH17 differentiation of CD4+ T cells, IL-17 production. Format: cell-based, mice. Conditions: 3 days. How it is done:
Naïve CD4+ T cells were purified by negative selection and cultured under TH17 polarizing conditions for 3 days in the presence of SB20350 (5 μM if not otherwise indicated). IL-17 secretion was analyzed by ELISA (FIG. 3A). Relative IL-17 mRNA was assessed by qRT-PCR (FIG. 3B). IL-17 levels were assessed using intracellular staining and flow cytometry (FIG. 3C).
Total CD4 T cells were isolated from spleen and lymph nodes as previously described (Noubade et al., 2007, J Clin Invest., 117(11):3507-3518), by negative selection for CD8-, MHC class II-, NK1.1- and CD11b-positive cells using magnetic beads from QIAGEN. For FACS sorting, negatively selected CD4 T cells were stained with anti-TCRβ-allophycocyanin and anti-CD4-Texas Red (Invitrogen), and sorted using a FACSAria cell sorting system (BD Biosciences). Th17 CD4 T cells were generated by activating total CD4 T cells (1×10^6 cells/mL) in RPMI containing 10% FBS (Hyclone), with plate bound anti-CD3 (5 μg/mL) and soluble anti-CD28 (1 μg/mL) mAbs from BD Pharmingen in the presence of 1 ng/mL TGFβ (PeproTech Inc), 30 ng/mL IL-6 (R&D Systems), 10 μg/mL anti-IFNγ, and 10 μg/mL anti-IL-4 mAbs. […]
For intracellular cytokine staining, either FACS-sorted or total CD4 T cells polarized to Th17 cells in the absence or the presence of 5 μM SB203580 were stimulated with 5 ng/mL PMA, 250 ng/mL ionomycin, and 2 μM monensin (Sigma-Aldrich) for the last 4 hours of culture. […] Cells were collected using a LSR II cytometer (BD Biosciences) and analyzed using FlowJo software (TreeStar Inc).
Total RNA was extracted from CD4 T cells using RNeasy RNA isolation reagent (QIAGEN) as recommended by the manufacturer. The generated cDNA was used in quantitative real-time PCR using the assay-on-demand (AOD) TaqMan probe and primers for IL-17A and β2-microglobulin (Applied Biosystems). β2-microglobulin was used as a reference gene and relative mRNA levels were calculated using the comparative CT method.
IL-17 production was analyzed by various methods including ELISA, qRT-PCR, and intracellular staining and flow cytometry.

The subject of test [3] is Draining lymph node (DLN) cells. As to the kind of experiment: Draining lymph node cells of treated EAE mice restimulated with MOG35-55, cytokine ELISA. Conditions: DLN cells collected D20, restimulated with MOG35-55 for 3 days. It is filed as in vivo, C57BL/6J (B6) mice. An excerpt:
Female B6 mice were immunized for EAE as described for FIG. 1 and treated daily with carrier or SB. On D30 post-immunization, CNS (brain and spinal cord) cells were harvested and analyzed by intracellular staining and flow cytometry. Relative percentages (out of CD4+TCRβ+ population) of IL-17+, IFN-γ+, or IL-17+ IFN-γ+ cells (FIG. 2A), and percentages of CD4+TCRβ+ cells (out of CD45+ cells) (FIG. 2B). DLN cells were collected on D20 and restimulated with MOG35-55 for 3 days. Production of IFN-γ+(FIG. 2C) or IL-17 (FIG. 2D) was assessed by ELISA.
EAE was induced in female C57BL/6J mice as described previously (Noubade et al., 2007, J Clin Invest., 117(11):3507-3518). […]
To examine the mechanism of EAE prevention by SB, the TH1 and TH17 effector subsets were analyzed in treated female mice. […] On D30 post-immunization, CNS (brain and spinal cord) cells were harvested and analyzed by intracellular staining and flow cytometry. […] Draining lymph node (DLN) cells were collected on D20 and restimulated with MOG35-55 for 3 days, and production of IFN-γ and IL-17 was assessed by ELISA.

Turning to `C[S+]([O-])c1ccc(-c2nc(-c3ccncc3)c(-c3ccc(F)cc3)[nH]2)cc1` (stereo not shown) [SB203580], in test [1], the “Cytokine production / inflammatory response” value is listed as “decreased cytokine production; also recorded: reduces the inflammatory response” and the EAE severity result is listed as “reduces EAE severity; also recorded: prevents passive EAE induced by TH1 cells”. In test [2] (5 μM), the “Cellular IL-17 protein levels (intracellular staining, flow cytometry)” value is given as “decreased” and the “IL-17 mRNA levels (qRT-PCR)” value was “not significantly affected”. The “IL-17 production / secretion (ELISA)” value in test [2] (inhibitor present, listed as SB) is recorded as “suppressed IL-17 production in a dose-dependent manner; also recorded: decreased; also recorded: reduced IL-17 production in vitro; also recorded: inhibits IL-17 production at a post-transcriptional level”. Moreover, in test [3], the “IFN-γ production (ELISA)” value is reported as “did not decrease” and the “IL-17 production (ELISA)” value is listed as “specifically inhibited IL-17 production”.
